Experimental data published in patent US5288751A, “[(Substituted) phenyalkyl]furylalkynyl-and [substituted) phenyalkyl] thienylalkynyl-N-hydroxyurea inhibitors or leukotriene biosynthesis” (Abbott Laboratories, priority 1992, dated 1994).

Legend:
[1] = tested on: Stimulated LTB4 Formation in Human Whole Blood; assay: Calcium ionophore (A23187)-induced LTB4 biosynthesis in human whole blood (in vitro leukotriene biosynthesis inhibition); type: cell-based; conditions: human heparinized whole blood, A23187 8.3 μM, 30 minutes; for IC50: 15 min preincubation at 37° C.; for % inhibition of stimulated LTB4 formation in human whole blood: test concentration not stated
Protocol: Inhibition of leukotriene biosynthesis was evaluated in an assay, involving calcium ionophore-induced LTB4 biosynthesis expressed human whole blood. Human heparinized whole blood was preincubated with test compounds or vehicle for 15 min at 37° C. followed by calcium ionophore A23187 challenge (final concentration of 8.3 μM) and the reaction terminated after 30 minutes by adding two volumes of methanol containing prostaglandin B2 as an internal recovery standard. The methanol extract was analyzed for LTB4 using a commercially available radioimmunoassay.
In Vitro Inhibitory Potencies Against Stimulated LTB4 Formation

[2] = tested on: biosynthesis of leukotrienes (peritoneal fluid leukotriene levels); assay: Inhibition of leukotriene biosynthesis in vivo, rat peritoneal anaphylaxis model, oral administration; conditions: single 30 μmol/kg oral dose, gavage one hour prior to antigen challenge, 15 minutes after challenge
Protocol: Inhibition of the biosynthesis of leuktrienes in vivo after oral administration of compound was determined using a rat peritoneal anaphylaxis model in a similar manner as that described by Young and coworkers (Young, P. R.; Dyer, R. D.; Carter, G. W., Fed. Proc., Fed. Am. Soc. Exp. Biol. 1985, 44: 1185). In this model rats were injected intraperitoneally (ip) with rabbit antibody to bovine serum albumin (BSA) and three hours later injected ip with BSA to induce an antigen-antibody response. Rats were sacrificed 15 minutes after this challenge and the peritoneal fluids were collected and analyzed for leukotriene levels. Test compounds were administered by gavage one hour prior to the antigen challenge. Percent inhibition values were determined by comparing the treatment group to the mean of the control group. Compounds of this invention prevent the formation of leukotrienes in this model after oral administration in a range of 1-200 μmol/kg.

IC50 [1]	SMILES	% inhibition of leukotriene formation in vivo [2]	% inhibition of stimulated LTB4 formation in human whole blood [1]
60 nM	CC(C#Cc1ccc(Cc2ccc(F)cc2)o1)N(O)C(N)=O (stereo not drawn) [Example 1, N-{3-[5-(4-Fluorophenylmethyl)fur-2-yl]-1-methyl-2-propynyl}-N-hydroxyurea]	68%	
	CC(C#Cc1ccc(C(=O)c2ccc(F)cc2)o1)N(O)C(N)=O (stereo not drawn) [Example 2]		72%
	CC(C#Cc1ccc(/C=C/c2cccnc2)o1)N(O)C(N)=O (stereo not drawn) [Example 4, N-Hydroxy-N-[4-(5-{2-[3-pyridyl]ethenyl}fur-2-yl)-1-methyl-2-propynyl]urea]		39%
620 nM	CC(C#Cc1ccc(/C=C/c2ccc(F)cc2)o1)N(O)C(N)=O (stereo not drawn) [Example 5, N-[4-(5-{2-[4-Fluorophenyl]ethenyl}fur-2-yl)-1-methyl-2-propynyl]-N-hydroxyurea]		
	CC(C#Cc1ccc(/C=C/c2ccccc2)o1)N(O)C(N)=O (stereo not drawn) [Example 6, N-Hydroxy-N-[4-(5-{2-phenylethenyl}fur-2-yl)-1-methyl-2-propynyl]urea]		40%
350 nM	CC(C#Cc1ccc(/C=C/c2ccccn2)o1)N(O)C(N)=O (stereo not drawn) [Example 7, N-Hydroxy-N-[4-(5-{2-[2-pyridyl]ethenyl}fur-2-yl)-1-methyl-2-propynyl]urea]		
	CC(C#Cc1ccc(/C=C/c2ccc(F)cc2)s1)N(O)C(N)=O (stereo not drawn) [Example 8]		62%
300 nM	Cc1ccc(/C=C/c2ccc(C#CC(C)N(O)C(N)=O)o2)cc1 (stereo not drawn) [Example 9, N-Hydroxy-N-[4-(5-{2-[5-methylphenyl]ethenyl}fur-2-yl)-1-methyl-2-propynyl]urea]		
70 nM	CC(C#Cc1ccc(Cc2ccc(F)cc2)s1)N(O)C(N)=O (stereo not drawn) [Example 12, N-{3-[5-(4-Fluorophenylmethyl)-2-thienyl]-1-methyl-2-propynyl}-N-hydroxyurea]	72%	
70 nM	C[C@H](C#Cc1ccc(Cc2ccc(F)cc2)s1)N(O)C(N)=O [Example 13, (R)-N-{3-[5-(4-Fluorophenylmethyl)-2-thienyl]-1-methyl-2-propynyl}-N-hydroxyurea]		
